Assay results taken from ChEMBL document CHEMBL1137517, “Rational design, synthesis and evaluation of (6aR( *),11bS( *))-1-(4-fluorophenyl)-4-{7-[4-(4-fluorophenyl)-4-oxobutyl]1,2,3,4,6,6a,7,11b,12,12a(RS)-decahydropyrazino[2',1':6,1]pyrido[3,4-b]indol-2-yl}-butan-1-one as a potential neuroleptic agent” (Bioorg Med Chem, 2007).

Tests used:
[1] = molecular target: 5-hydroxytryptamine receptor 2A (Rattus norvegicus, UniProt P14842); test: Displacement of [3H]ketanserin from 5HT2A receptor in rat brain; assay type: tissue-based
[2] = molecular target: D(2) dopamine receptor (Rattus norvegicus, UniProt P61169); test: Displacement of [3H]spiperone from dopamine D2 receptor in rat brain; assay type: tissue-based
[3] = test system: Rattus norvegicus; test: Cataleptic activity in ip dosed rat; assay type: ADME, organism-based; conditions: in vivo
[4] = test system: Mus musculus; test: Effect on locomotor activity in ip dosed mouse assessed as motor deficit by rota rod test; assay type: functional
[5] = test system: Rattus norvegicus; test: Blockade of conditioned avoidance response in ip dosed rat; assay type: functional
[6] = test system: Rattus norvegicus; test: Blockade of unconditioned avoidance response in ip dosed rat; assay type: functional
[7] = organism: Rattus norvegicus; test: Ratio of ED50 for cataleptic activity in rat to ED50 for conditioned avoidance response in rat; assay type: functional
[8] = test system: Mus musculus; test: Antagonism of amphetamine-induced toxicity in ip dosed mouse; assay type: functional
[9] = test system: Rattus norvegicus; test: Blockade of secondary conditioned avoidance response in ip dosed rat; assay type: functional
[10] = test system: Mus musculus; test: Reduction of amphetamine-induced hyperactivity in ip dosed mouse; assay type: functional
[11] = molecular target: D(1A) dopamine receptor (Rattus norvegicus, UniProt P18901); test: Displacement of [3H]SCH-23390 from dopamine D1 receptor in rat brain; assay type: tissue-based
Sequence of D(1A) dopamine receptor (P18901 whole entry): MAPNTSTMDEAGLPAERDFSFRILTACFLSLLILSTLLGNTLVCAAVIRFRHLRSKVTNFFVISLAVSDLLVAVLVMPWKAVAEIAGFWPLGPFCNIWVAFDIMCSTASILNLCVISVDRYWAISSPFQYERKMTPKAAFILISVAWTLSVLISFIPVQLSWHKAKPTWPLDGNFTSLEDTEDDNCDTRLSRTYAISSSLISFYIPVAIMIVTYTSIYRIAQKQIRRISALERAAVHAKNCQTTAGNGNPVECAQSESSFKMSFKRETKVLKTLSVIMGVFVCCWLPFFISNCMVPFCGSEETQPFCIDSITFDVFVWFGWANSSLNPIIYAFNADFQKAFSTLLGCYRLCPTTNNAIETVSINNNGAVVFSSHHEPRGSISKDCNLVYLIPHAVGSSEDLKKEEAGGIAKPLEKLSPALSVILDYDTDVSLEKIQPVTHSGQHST

Sequence of 5-hydroxytryptamine receptor 2A (P14842 whole entry): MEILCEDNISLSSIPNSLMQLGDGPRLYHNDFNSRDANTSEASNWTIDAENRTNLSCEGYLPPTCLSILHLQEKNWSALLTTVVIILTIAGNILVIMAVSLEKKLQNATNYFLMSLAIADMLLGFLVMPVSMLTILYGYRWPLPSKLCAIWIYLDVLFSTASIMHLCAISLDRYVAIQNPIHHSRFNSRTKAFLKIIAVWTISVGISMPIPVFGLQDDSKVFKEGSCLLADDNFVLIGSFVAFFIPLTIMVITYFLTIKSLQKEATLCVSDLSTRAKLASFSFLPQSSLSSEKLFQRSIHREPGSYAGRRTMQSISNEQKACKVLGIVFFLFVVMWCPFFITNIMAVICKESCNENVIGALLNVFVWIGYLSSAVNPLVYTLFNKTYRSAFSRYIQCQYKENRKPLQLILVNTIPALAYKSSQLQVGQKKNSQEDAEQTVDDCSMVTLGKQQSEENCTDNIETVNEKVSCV
Sequence of D(2) dopamine receptor (P61169 whole entry): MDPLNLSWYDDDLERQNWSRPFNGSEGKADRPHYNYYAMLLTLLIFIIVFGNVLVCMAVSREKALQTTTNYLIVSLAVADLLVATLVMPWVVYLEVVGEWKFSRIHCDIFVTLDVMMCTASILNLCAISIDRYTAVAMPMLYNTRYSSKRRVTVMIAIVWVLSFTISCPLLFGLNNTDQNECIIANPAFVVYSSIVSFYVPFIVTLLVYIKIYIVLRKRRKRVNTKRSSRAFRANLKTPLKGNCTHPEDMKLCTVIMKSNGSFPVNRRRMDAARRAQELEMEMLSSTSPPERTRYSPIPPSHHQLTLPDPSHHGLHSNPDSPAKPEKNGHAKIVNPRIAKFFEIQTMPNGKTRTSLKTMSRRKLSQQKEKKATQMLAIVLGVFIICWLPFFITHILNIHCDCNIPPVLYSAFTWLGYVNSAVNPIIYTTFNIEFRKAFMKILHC

Row | Ki [1] | Ki [2] | Ki [11] | Compound | ED50 [3] | ED50 [4] | ED50 [5] | ED50 [6] | Ratio [7] | ED50 [8] | ED50 [9] | ED50 [10]
1 | 92.5 nM | 93.8 nM | – | O=C(CCCN1CCN2CC3Nc4ccccc4C3CC2C1)c1ccc(F)cc1 (stereo not drawn) | – | – | – | – | – | – | – | –
2 | 24 nM | 13.2 nM | 425 nM | O=C(CCCN1CCN2Cc3[nH]c4ccccc4c3CC2C1)c1ccc(F)cc1 (stereo not drawn) [BIRIPERONE] | 0.86 mg/kg | 2.55 mg/kg | 0.09 mg/kg | 9.8 mg/kg | 9.5 | 1 mg/kg | 0.04 mg/kg | 0.75 mg/kg

Further lines, the molecule ahead of its results:

Row | Compound | Ki [1] | Ki [2] | Ki [11] | ED50 [3] | ED50 [4] | ED50 [5] | ED50 [6] | Ratio [7] | ED50 [8] | ED50 [9] | ED50 [10]
3 | O=C(CCCN1CCN2CC3C(CC2C1)c1ccccc1N3CCCC(=O)c1ccc(F)cc1)c1ccc(F)cc1 (stereo not drawn) | 9.35 nM | 2250 nM | 0.643 nM | 0.88 mg/kg | 4.33 mg/kg | 0.07 mg/kg | 5.6 mg/kg | 12.6 | 5.75 mg/kg | 0.01 mg/kg | 1.71 mg/kg
4 | O=C(CCCN1c2ccccc2C2CC3CNCCN3CC21)c1ccc(F)cc1 (mixture of isomers) | > 100000 nM | > 100000 nM | – | – | – | – | – | – | – | – | –
5 | O=C(CCCN1CCC(O)(c2ccc(Cl)cc2)CC1)c1ccc(F)cc1 [HALOPERIDOL] | – | – | – | – | – | 0.1 mg/kg | – | – | – | 0.04 mg/kg | –
